Entries after “also recorded” stand apart in the source; their conditions may differ. No end group written: not given here. *: point of attachment. FITC = O=C1OC2(c3ccc(O)cc3Oc3cc(O)ccc32)c2ccc(NC(=S)*)cc21; Ahx = NCCCCCC(=O)O

As a reminder, the Km is the substrate concentration at which the rate is half of its maximum.

Series [1] deals with T1, RAF-1 kinase (Homo sapiens, UniProt P04049).
T1 construct: Anti-RAF-1 precipitates of T cells; endogenous in cells; host or cells: T cells
In words: RAF-kinase activity in anti-RAF-1 precipitates of T cells. The class given is cell-based. To be noted: anti-RAF-1 precipitates of exposed T cells. An excerpt: In a second study, the V7 peptide portion of the V7-poly-arginine conjugate was phosphorylated in vitro using protein kinase C.

Series [2] concerns the target T2, complex consisting of RAF-1 and p21 Ras (Homo sapiens, UniProt P04049).
T2 construct: T-cells which had been isolated by standard methods; endogenous in cells; host or cells: T-cells isolated by standard methods
In words: Disruption of RAF-1/p21 Ras complex in peptide-treated T-cells. The class given is cell-based. To be noted: same peptide treatment.

The target in series [3] is T3, RAF-1 in V7 immunocomplex (Homo sapiens, UniProt P04049).
T3 construct: T-cells which had been isolated by standard methods; endogenous in cells; host or cells: T-cells isolated by standard methods
In words: Anti-V7 immunoprecipitation from peptide-treated T-cells. The class given is cell-based. The procedure: The conjugate was added (final concentration ≈10 μM) to T-cells which had been isolated by standard methods, and was incubated at 37° C. for several hours to overnight. Cells were lysed using detergent (1% Triton X-100). DNA was removed, and the soluble (protein-containing) fraction was subjected to immunoprecipitation with an anti-V7 murine monoclonal antibody in combination with goat anti-mouse IgG. RAF-1 is a kinase that associates with, and is inactivated by association with, V7.

In series [4] the test system is gamma-IFN secretion by murine T cell line (clone 11.3). In words: Inhibition of gamma-IFN production by conjugates. The class given is cell-based. The procedure:
3. Gamma-IFN Assay. The amount of gamma interferon secreted by a murine T cell line (clone 11.3) was measured by incubating 10^5 T cells with varying amounts of antigen (peptide consisting of residues 110-121 of sperm whale myoglobin) and histocompatible spleen cells from DBA/2 mice (H-2d, 5×10^5), which act as antigen-presenting cells (APCs), in 96 well plates. After incubation for 24 hours at 37° C., 100 μL of the supernatants were transferred to microtiter plates coated with commercially available anti-gamma-IFN monoclonal antibodies (Mab) (Pharmingen, San Diego, Calif.). After incubation for an hour at room temperature, the plates were washed with PBS containing 1% fetal calf serum and 0.1% Tween®20, after which a second, biotinylated gamma-IFN Mab was added. After a second hour of incubation, the plates were washed as before, and europium (Eu)-streptavidin (Delphia-Pharmacia) was added. Again, after an hour of incubation, an acidic buffer was added to release Eu, which was measured by time-resolved fluorometry on a Delphia plate reader.
The ability of PNA-polyarginine conjugates to inhibit secretion of gamma-IFN was assayed by adding various concentrations of the above gamma-IFN conjugates with suboptimal doses of peptide antigen (0.5 μM), to a mixture of clone 11.3 T cells and histocompatible spleen cells.
After 24 hours, aliquots of the cultured supernatants were taken, and the amount of gamma-IFN was measured using the fluorescent binding assay described in section 3 above.

Series [5] has as its system Jurkat cells. The series is described as follows: Fluorescence assay of cellular uptake of peptide-fluorescein conjugates (FACS). The class given is cell-based, human. To be noted: FIGS. 1A-1C.
For series [6], the system named is Jurkat cells. The series is described as follows: Kinetics of uptake (Michaelis-Menten, Lineweaver-Burk). The class given is cell-based, human. To be noted: for Km / VMAX: fluorescent conjugates, Jurkat cells, 0.5, 1, 2 and 4 minutes at 4° C., Lineweaver-Burk.
Protocol: Peptides were incubated with cells for 0.5, 1, 2, and 4 minutes at 4° C. in triplicate, in 50 μL of PBS/FCS in 96-well plates. At the end of incubation, the reaction was quenched by diluting the samples in 5 mL of PBS/FCS, centrifuging and washing once with PBS/FCS, trypsin/EDTA, and finally again with PBS/FCS, and taking up the pellets in PBS/FCS containing propidium iodide for analysis on a FACScan. FACS data were fitted to the Line-weaver-Burk equation for Michaelis-Menten kinetics.
Series [7] has as its system Jurkat cells. In words: Confocal cell microscopy of conjugate uptake. The class given is cell-based, human. To be noted: 6.25 μM conjugate, 37° C., 10 minutes. The procedure:
Cells incubated with fluorescent polyarginine peptides were prepared as described above for binding assays and analyzed at the Cell Sciences Imaging Facility (Stanford University, Stanford, Calif.) using a scanning, single beam laser confocal microscope, with an excitation wavelength of 488 nm (argon-ion laser) and an emission band-width of 510-550 using a band-pass filter. Conjugates (6.25 μM) containing tat(49-57), R7, or r7 coupled to fluorescein were incubated with Jurkat cells for 37° C. for 10 minutes. FIGS. 2A-2F show results for emitted fluorescence (FIGS. 2A-2C) and transmitted light (2D—2F) for tat(49-57) (FIGS. 2A and […]), R7 (FIGS. 2B and 2E), and r7 (FIGS. 2C and 2F).

A short description of series [8]: Biological half-life / proteolysis by serum enzymes in uptake assay. The class given is in vitro ADME. The settings on record: serum-containing assay.
The subject of series [9] is E. coli strain HB101. The series is described as follows: Transport into bacterial cells (gram-negative). The class given is cell-based. To be noted: 30 minutes at 37° C., 3 to 50 μM conjugate. The procedure:
Gram-negative bacteria (E. coli strain HB101) and gram-positive bacteria (Strep. bovis) were grown in appropriate media in logarithmic phase. Cell cultures (4×10^8 per mL) were incubated for 30 minutes at 37° C. with varying concentrations of fluorescent conjugates containing linear polymers of L-arginine (R4 through R9), D-arginine (r4 through r9), or L-lysine (K9) at conjugate concentrations of 3 to 50 μM. The cells were washed and taken up in PBS-containing propidium iodide (to distinguish dead cells) and analyzed by FACS and fluorescent microscopy. Results are shown in FIGS. 5A-5C as discussed above.

In series [10] the test system is cells. In words: Length range studies: uptake of longer polyarginine conjugates (FACS, mean fluorescence of live cells). The class given is cell-based. The procedure: To examine the effect of substantially longer polymers, a mixture of L-arginine polymers with an average molecular weight of 12,000 daltons (≈100 amino acids) was also tested (Example 5). However, to avoid precipitation problems, the level of serum in the assay had to be reduced for testing conjugates with the ≈12,000 MW polymer material. Cell uptake was analyzed by FACS as above, and the mean fluorescence of live cells was measured. Cytotoxicity of each conjugate was also measured.
Suspension cells ([…]) were incubated for varying times, at 37° C., 23° C., or 4° C., with a range of concentrations of peptides or conjugates in PBS pH 7.2 containing 2% fetal calf serum (PBS/FCS) in 96 well plates. […] The pelleted cells were resuspended in PBS containing 2% FCS and 0.1% propidium iodide and analyzed on a FACScan (Becton Dickenson, Mountain View, Calif.). […]
The following homopolymers of polyarginine were tested by the fluorescence assay in Example 2, with incubation at 37° C. for 15 minutes prior to cell pelleting: r9, R9, R15, R20, R25, and R30. […] The cells were analyzed by FACS, and the mean fluorescence of the live cells was measured. Cytotoxicity of each conjugate was also measured by calculating the percentage of cells that stained with propidium iodide, which is characteristic of cell death. […]

For series [11] the following is noted: cited from earlier work.
Series [12] concerns albumin-specific CTLs. The series is described as follows: Dendritic cells exposed to conjugate and injected into mice: CTL response in blood. The class given is in vivo. The settings on record: dendritic cells exposed to antigen, then injected into mice. The procedure:
In another experiment, histocompatible dendritic cells (a specific type of APC) were exposed to albumin-R7 conjugates and were then injected into mice. […] Control mice were given dendritic cells that had been exposed to unmodified albumin.

In series [13] the test system is cytotoxic T-lymphocytes. In words: Transport of large protein antigen into APCs: stimulation of CTLs. The class given is cell-based. To be noted: 10 μM on B-cells (APCs). The procedure:
The molar ratio of peptide conjugated to ovalbumin was quantified by amino acid analysis. The conjugate product was designated OV-R7. The conjugate was added (final concentration 10 μM) to B-cells, also referred to as antigen-presenting cells (APCs), which were isolated according to standard methods. The APCs were incubated with OV-R7, and then were added to a preparation of cytotoxic T-lymphocytes isolated by standard methods.

On to “V7 peptide: V7 cytoplasmic tail sequence KLSTLRSNT with 7 arginine residues attached to its C-terminus (KLSTLRSNTRRRRRRR)”, for which, in [1], the “inhibition of RAF-kinase activity” value is recorded as “not”. Further, in [2], the “disruption of complex of RAF-1 and p21 Ras” value is “did not disrupt; also recorded: unable to disrupt”. The “binding to RAF-1” value in [3] is reported as “can bind to RAF-1”. The “RAF-1 co-precipitation with V7” value in [3] (≈10 μM on T-cells, 37° C., several hours to overnight) is given as “RAF-1 protein was eliminated from the V7 immuno-complex; also recorded: RAF-1 protein was eliminated from the V7 immunocomplex”.
As to “NH2-rrrrrrr-AACGCTACAC-COOH (PNA, D-arginine heptamer conjugate, chemistry not fully specified) [sense PNA-r7]”, in series [4] (24 hours, peptide antigen 0.5 μM, equivalent molar amounts), the “inhibition of gamma-IFN secretion” value was “no inhibition”.
Regarding “NH2-rrrrrrr-GTGTAGCGTT-COOH (all peptide nucleic acid (PNA); D-arginine heptamer attached at the N-terminus, further chemistry not fully specified) [antisense PNA-r7 conjugate]”, in series [4] (24 hours, peptide antigen 0.5 μM), the “reduction in IFN secretion” value is recorded as “over 70%”. Moreover, in series [4] (FIG. 7), the “conjugate level effective to block γ-IFN secretion” value is given as “above 10 μM”.
In the case of “K9: nonamer of L-Lys residues, fluorescein conjugate ({FITC-Ahx}-KKKKKKKKK; also: fluorescein conjugate, place not given here)”, the “cellular uptake (transport of fluorescein into cells)” value was “very little uptake” in series [5] and “ineffective as a transporter” in [5] (listed as poly-Lys nonamer).
Turning to “Arg-Lys-Lys-Arg-Arg-Gln-Arg-Arg-Arg (RKKRRQRRR; also: fluorescein conjugate, place not given here) [tat 49-57, polypeptide comprising HIV tat residues 49-57, fluorescein conjugate, reference compound]”, in [6], the Michaelis constant (Km) was determined as 722 µM and the VMAX was found to be 0.38 µM/s. Besides, in series [7], the “fluorescence of cytosol (confocal micrographs)” value is reported as “only weak staining”.
Regarding H3N-rrrrrrrrr-COO^-, the proteolytic degradation entry in [8] was “did not show evidence of proteolytic degradation”. Besides, in series [6], the Michaelis-Menten constant (Km) was 7.21 µM and the VMAX is 0.39 µM/s. Also, the Km in series [6] (listed as nonamer of D-arginine) was 7 µM. Besides, the “apparent affinity (Km) relative to tat peptide” value in [6] (greater apparent affinity than tat(49-57)) is listed as “approximately 100 fold”. The “uptake levels by E. coli HB 101 cells” value in series [9] is reported as “much higher uptake levels”. Moreover, the “fluorescence of cytosol (confocal micrographs)” value in series [7] was “brightly fluorescent”. Besides, in series [10] (FIG. 3 data), the “rate of entering cells” value is “higher rates than polymers containing 15 or more contiguous arginines”. The “uptake versus longer polymers” value in series [10] (higher concentrations (>3 μM), 37° C., 15 minutes) is given as “significantly better than for the longer polymers”.
`CC(=O)O[C@@]12CO[C@@H]1C[C@H](O)[C@@]1(C)C(=O)[C@H](O)C3=C(C)[C@@H](OC(=O)[C@H](O)[C@@H](NC(=O)OC(C)(C)C)c4ccccc4)C[C@@](O)([C@@H](OC(=O)c4ccccc4)[C@H]21)C3(C)C` [taxotere]: in series [11], the water solubility is 6 to 7 µg/mL.

B1: unmodified ovalbumin: ovalbumin (45 kDa) protein antigen, not conjugated (protein, UniProt P01012 2-386, looked up)
Ovalbumin: GSIGAASMEFCFDVFKELKVHHANENIFYCPIAIMSALAMVYLGAKDSTRTQINKVVRFDKLPGFGDSIEAQCGTSVNVHSSLRDILNQITKPNDVYSFSLASRLYAEERYPILPEYLQCVKELYRGGLEPINFQTAADQARELINSWVESQTNGIIRNVLQPSSVDSQTAMVLVNAIVFKGLWEKAFKDEDTQAMPFRVTEQESKPVQMMYQIGLFRVASMASEKMKILELPFASGTMSMLVLLPDEVSGLEQLESIINFEKLTEWTSSNVMEERKIKVYLPRMKMEEKYNLTSVLMAMGITDVFSSSANLSGISSAESLKISQAVHAAHAEINEAGREVVGSAEAGVDAASVSEEFRADHPFLFCIKHIATNAVLFFGRCVSP
Turning to B1, the “albumin-specific CTL response in blood of mice” value in series [12] was “did not exhibit the albumin-specific CTL response”. In addition, the “stimulation of CTLs by APCs incubated with antigen” value in series [13] is reported as “failed to stimulate the CTLs”.

(Values after US6495663B1, “Method and composition for enhancing transport across biological membranes” (The Board of Trustees of the Leland Stanford Junior …, priority 1997, dated 2002).)
